Test results from patent publication US11981658B2, “Substituted aminopyridine compounds as EGFR inhibitors” (YUHAN CORPORATION, priority 2021, dated 2024).
Where two headings read alike, the source gives them in different places.

Columns and labels:
EGFR wildtype (WT) = EGFR wildtype (WT) (Homo sapiens, UniProt P00533); assay: Biochemical EGFR kinase inhibition assay (Lance Ultra TR-FRET), wildtype
How it was run: (§1)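 Enzyme reactions lasted 1 hour at room temperature with test compounds between 0.003 and 10 μM, followed by 10 mM EDTA quench.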

EGFR Del19/C797S = EGFR Del19/C797S (Homo sapiens, UniProt P00533, C797S/DEL746-750); assay: Biochemical EGFR kinase inhibition assay (Lance Ultra TR-FRET), double mutant del19/C797S
How it was run: as §1

EGFR Del19/T790M/C797S = EGFR Del19/T790M/C797S (Homo sapiens, UniProt P00533, C797S/DEL746-750/T790M); assay: Biochemical EGFR kinase inhibition assay (Lance Ultra TR-FRET), triple mutant del19/T790M/C797S
How it was run: as §1

EGFR L858R/T790M/C797S = EGFR L858R/T790M/C797S (Homo sapiens, UniProt P00533, C797S/L858R/T790M); assay: Biochemical EGFR kinase inhibition assay (Lance Ultra TR-FRET), triple mutant L858R/T790M/C797S
How it was run: as §1

EGFR L858R/C797S = EGFR L858R/C797S (Homo sapiens, UniProt P00533, C797S/L858R); assay: Biochemical EGFR kinase inhibition assay (Lance Ultra TR-FRET), double mutant L858R/C797S
How it was run: as §1

[1] = Km ATP, read-out: IC50 WT (nM) Km ATP
[2] = IC50 Del19/C797S (nM), 100 μM ATP
[3] = Km ATP, read-out: IC50 Del19/C797S (nM) Km ATP
[4] = IC50 Del19/T790M/C797S (nM), 100 μM ATP
[5] = Km ATP, read-out: IC50 Del19/T790M/C797S (nM) Km ATP
[6] = IC50 L858R/T790M/C797S (nM), 100 μM ATP
[7] = Km ATP, read-out: IC50 L858R/T790M/C797S (nM) Km ATP
[8] = IC50 L858R/C797S (nM), 100 μM ATP
[9] = Km ATP, read-out: IC50 L858R/C797S (nM) Km ATP

Chain of EGFR Del19/C797S (P00533 with tags, fused parts or gaps DEL746-750/C797S): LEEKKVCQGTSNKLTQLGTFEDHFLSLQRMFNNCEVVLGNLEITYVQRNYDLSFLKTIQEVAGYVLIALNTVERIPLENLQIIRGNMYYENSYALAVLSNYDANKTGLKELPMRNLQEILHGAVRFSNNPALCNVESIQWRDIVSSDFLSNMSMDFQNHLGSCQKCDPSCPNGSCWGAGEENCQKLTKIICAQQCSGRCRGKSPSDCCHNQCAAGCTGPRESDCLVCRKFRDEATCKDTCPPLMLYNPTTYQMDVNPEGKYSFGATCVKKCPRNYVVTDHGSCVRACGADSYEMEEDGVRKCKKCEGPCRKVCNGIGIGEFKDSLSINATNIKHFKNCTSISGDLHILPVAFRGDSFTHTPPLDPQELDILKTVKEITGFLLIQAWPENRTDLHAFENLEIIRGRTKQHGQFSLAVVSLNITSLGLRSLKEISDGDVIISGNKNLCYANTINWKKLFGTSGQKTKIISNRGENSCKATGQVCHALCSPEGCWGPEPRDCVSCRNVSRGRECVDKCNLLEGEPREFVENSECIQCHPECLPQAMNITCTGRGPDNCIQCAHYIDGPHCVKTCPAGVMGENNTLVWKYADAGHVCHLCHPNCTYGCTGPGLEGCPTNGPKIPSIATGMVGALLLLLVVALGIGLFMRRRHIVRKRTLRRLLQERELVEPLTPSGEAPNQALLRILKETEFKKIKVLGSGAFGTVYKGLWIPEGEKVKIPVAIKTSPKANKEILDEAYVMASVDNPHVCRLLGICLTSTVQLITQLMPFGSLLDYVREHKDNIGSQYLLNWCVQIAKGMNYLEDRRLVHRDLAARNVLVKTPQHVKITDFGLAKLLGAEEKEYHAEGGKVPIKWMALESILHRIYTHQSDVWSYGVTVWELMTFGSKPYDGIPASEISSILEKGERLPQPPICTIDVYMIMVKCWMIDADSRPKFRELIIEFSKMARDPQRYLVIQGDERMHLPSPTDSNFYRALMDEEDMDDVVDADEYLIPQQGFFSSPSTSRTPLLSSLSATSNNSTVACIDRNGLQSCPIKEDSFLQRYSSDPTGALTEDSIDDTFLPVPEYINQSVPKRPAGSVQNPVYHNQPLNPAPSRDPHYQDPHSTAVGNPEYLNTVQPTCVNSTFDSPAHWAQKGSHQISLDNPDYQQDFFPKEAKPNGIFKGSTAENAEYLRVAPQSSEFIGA
Chain of EGFR L858R/T790M/C797S (P00533 25-1210 T790M/C797S/L858R): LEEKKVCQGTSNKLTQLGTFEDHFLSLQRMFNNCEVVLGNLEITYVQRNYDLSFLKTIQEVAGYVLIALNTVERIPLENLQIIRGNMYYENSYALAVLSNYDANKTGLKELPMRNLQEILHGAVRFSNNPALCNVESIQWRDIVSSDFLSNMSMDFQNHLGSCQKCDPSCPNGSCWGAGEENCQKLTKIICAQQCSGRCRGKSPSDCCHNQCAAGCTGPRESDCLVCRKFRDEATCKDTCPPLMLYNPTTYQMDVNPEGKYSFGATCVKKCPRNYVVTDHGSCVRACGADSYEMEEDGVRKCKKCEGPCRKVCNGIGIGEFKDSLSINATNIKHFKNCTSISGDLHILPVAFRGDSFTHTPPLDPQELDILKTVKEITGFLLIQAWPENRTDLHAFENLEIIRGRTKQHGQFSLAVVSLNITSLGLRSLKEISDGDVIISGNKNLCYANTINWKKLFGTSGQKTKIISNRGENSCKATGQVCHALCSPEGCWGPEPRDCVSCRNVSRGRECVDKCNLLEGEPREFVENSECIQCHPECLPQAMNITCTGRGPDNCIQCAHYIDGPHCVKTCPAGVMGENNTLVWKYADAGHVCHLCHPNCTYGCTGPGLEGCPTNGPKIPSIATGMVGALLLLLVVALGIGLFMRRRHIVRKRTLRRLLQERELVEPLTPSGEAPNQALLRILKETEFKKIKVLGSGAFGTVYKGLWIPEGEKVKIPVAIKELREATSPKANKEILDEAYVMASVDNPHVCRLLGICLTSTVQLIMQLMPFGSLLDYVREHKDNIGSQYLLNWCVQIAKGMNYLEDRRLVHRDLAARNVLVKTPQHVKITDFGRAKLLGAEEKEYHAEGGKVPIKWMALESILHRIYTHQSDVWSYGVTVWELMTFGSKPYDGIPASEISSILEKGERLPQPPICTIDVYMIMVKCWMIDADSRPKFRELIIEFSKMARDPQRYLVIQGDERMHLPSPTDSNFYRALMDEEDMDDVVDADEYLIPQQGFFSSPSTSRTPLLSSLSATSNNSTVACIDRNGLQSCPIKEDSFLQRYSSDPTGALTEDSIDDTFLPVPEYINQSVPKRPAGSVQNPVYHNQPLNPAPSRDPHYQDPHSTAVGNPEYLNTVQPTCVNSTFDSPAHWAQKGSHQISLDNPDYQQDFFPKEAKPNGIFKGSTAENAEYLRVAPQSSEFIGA
Chain of EGFR Del19/T790M/C797S (P00533 with tags, fused parts or gaps DEL746-750/T790M/C797S): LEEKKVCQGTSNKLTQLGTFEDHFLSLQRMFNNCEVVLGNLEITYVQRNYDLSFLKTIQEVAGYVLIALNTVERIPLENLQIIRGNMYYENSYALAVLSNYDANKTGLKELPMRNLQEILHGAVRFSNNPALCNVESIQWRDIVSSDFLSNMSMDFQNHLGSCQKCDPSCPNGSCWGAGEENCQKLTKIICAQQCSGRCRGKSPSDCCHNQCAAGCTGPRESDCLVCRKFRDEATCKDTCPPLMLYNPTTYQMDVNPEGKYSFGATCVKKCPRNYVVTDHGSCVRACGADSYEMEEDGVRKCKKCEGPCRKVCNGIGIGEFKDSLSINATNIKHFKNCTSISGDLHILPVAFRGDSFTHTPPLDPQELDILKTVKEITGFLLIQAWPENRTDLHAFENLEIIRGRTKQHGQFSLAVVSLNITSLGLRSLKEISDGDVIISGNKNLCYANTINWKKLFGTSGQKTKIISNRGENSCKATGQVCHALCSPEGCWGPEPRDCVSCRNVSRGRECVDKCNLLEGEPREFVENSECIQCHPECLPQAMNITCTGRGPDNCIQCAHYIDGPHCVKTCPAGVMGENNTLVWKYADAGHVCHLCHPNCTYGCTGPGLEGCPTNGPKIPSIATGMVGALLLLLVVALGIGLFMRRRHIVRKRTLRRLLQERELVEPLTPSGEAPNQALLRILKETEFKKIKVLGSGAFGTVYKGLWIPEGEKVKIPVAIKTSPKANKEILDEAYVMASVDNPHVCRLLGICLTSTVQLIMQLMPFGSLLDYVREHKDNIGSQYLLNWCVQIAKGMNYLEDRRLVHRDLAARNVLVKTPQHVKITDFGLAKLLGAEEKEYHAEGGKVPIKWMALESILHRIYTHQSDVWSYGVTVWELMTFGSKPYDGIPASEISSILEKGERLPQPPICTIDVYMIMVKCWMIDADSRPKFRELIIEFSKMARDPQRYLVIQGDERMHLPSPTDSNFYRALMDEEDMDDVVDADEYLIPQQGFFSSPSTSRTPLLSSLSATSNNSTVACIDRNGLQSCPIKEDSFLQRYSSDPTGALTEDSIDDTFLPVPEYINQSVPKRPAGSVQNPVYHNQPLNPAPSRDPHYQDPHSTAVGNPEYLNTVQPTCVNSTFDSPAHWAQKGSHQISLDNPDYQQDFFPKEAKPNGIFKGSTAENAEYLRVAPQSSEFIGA
Chain of EGFR L858R/C797S (P00533 25-1210 C797S/L858R): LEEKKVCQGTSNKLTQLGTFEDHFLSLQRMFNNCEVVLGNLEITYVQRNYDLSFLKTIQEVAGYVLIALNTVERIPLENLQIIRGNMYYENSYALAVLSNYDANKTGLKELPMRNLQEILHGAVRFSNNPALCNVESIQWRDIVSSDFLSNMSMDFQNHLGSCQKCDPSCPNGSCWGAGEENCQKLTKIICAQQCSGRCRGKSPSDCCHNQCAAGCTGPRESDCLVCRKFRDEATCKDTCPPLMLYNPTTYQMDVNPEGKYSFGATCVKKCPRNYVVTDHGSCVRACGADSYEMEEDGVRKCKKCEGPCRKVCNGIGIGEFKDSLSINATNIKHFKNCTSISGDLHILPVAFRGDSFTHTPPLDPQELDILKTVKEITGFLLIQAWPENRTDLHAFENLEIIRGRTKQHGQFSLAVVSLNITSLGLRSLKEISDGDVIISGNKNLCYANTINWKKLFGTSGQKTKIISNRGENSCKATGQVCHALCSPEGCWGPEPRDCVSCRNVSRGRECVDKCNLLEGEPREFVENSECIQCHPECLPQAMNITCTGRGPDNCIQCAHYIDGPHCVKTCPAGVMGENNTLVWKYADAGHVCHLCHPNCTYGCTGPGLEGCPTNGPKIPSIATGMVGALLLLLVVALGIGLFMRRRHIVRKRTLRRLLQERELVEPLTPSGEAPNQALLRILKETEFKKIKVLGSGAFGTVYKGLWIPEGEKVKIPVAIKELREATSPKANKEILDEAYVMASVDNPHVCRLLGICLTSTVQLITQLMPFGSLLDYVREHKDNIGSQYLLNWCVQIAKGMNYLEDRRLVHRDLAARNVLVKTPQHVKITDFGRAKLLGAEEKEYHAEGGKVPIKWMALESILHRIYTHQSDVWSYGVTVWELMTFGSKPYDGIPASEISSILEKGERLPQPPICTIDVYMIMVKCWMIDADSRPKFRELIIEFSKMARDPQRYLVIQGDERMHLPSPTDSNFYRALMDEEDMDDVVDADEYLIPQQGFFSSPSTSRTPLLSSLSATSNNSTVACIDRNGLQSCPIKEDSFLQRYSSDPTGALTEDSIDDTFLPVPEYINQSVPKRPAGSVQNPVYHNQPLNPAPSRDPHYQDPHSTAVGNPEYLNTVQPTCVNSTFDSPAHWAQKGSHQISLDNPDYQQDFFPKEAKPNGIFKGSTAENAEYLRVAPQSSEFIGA

SMILES	IC50 (EGFR wildtype (WT); IC50 WT (nM), 100 μM ATP)	IC50 (EGFR wildtype (WT); [1])	IC50 (EGFR Del19/C797S; [2])	IC50 (EGFR Del19/C797S; [3])	IC50 (EGFR Del19/T790M/C797S; [4])	IC50 (EGFR Del19/T790M/C797S; [5])	IC50 (EGFR L858R/T790M/C797S; [6])	IC50 (EGFR L858R/T790M/C797S; [7])	IC50 (EGFR L858R/C797S; [8])	IC50 (EGFR L858R/C797S; [9])
Cn1cc(C#Cc2cnc(Nc3ccnc(-c4cnn(S(=O)(=O)C5CC5)c4)n3)cc2N2CCCC(O)CC2)cn1 (stereo not shown) [Example 77, 1-(2-((2-(1-(Cyclopropylsulfonyl)-1H-pyrazol-4-yl)pyrimidin-4-yl)amino)-5-((1-methyl-1H-pyrazol-4-yl)ethynyl)pyridin-4-yl)azepan-4-ol]	> 10000 nM	97 nM	6.3 nM	5 nM	0.6 nM	0.9 nM	3.6 nM	0.5 nM	357 nM	14.1 nM
Cn1cc(C#Cc2cnc(Nc3ccnc(-c4cnn(S(=O)(=O)C5CC5)c4)n3)cc2N2CCCC(CO)CC2)cn1 (stereo not shown) [Example 78, (1-(2-((2-(1-(Cyclopropylsulfonyl)-1H-pyrazol-4-yl)pyrimidin-4-yl)amino)-5-((1-methyl-1H-pyrazol-4-yl)ethynyl)pyridin-4-yl)azepan-4-yl)methanol]	> 10000 nM	163 nM	12.4 nM	10.4 nM	1.3 nM	1.6 nM	5.9 nM	0.7 nM	563 nM	22.1 nM
Cn1cc(C#Cc2cnc(Nc3ccnc(-c4cnn(S(=O)(=O)C5CC5)c4)n3)cc2N2CCC3(CCNC3=O)CC2)cn1 [Example 79, 8-(2-((2-(1-(Cyclopropylsulfonyl)-1H-pyrazol-4-yl)pyrimidin-4-yl)amino)-5-((1-methyl-1H-pyrazol-4-yl)ethynyl)pyridin-4-yl)-2,8-diazaspiro[4.5]decan-1-one]	7190 nM	6.1 nM	1.3 nM	1.3 nM	0.3 nM	0.2 nM	0.8 nM	0.1 nM	17.8 nM	1.2 nM
Cn1cc(C#Cc2cnc(Nc3ccnc(-c4cnn(S(=O)(=O)C5CC5)c4)n3)cc2N[C@H]2CC[C@@](C)(O)CC2)cn1 [Example 81, (1s,4s)-4-((2-((2-(1-(Cyclopropylsulfonyl)-1H-pyrazol-4-yl)pyrimidin-4-yl)amino)-5-((1-methyl-1H-pyrazol-4-yl)ethynyl)pyridin-4-yl)amino)-1-methylcyclohexan-1-ol]	> 10000 nM	61.6 nM	5.8 nM	7.7 nM	0.3 nM	0.3 nM	0.4 nM	0.2 nM	79.1 nM	5.3 nM
O=S(=O)(C1CC1)n1cc(-c2nccc(Nc3cc(N4CCC(CCO)CC4)c(C#Cc4cnn(C5CC5(F)F)c4)cn3)n2)cn1 (stereo not shown) [Example 84, 2-(1-(2-((2-(1-(Cyclopropylsulfonyl)-1H-pyrazol-4-yl)pyrimidin-4-yl)amino)-5-((1-(2,2-difluorocyclopropyl)-1H-pyrazol-4-yl)ethynyl)pyridin-4-yl)piperidin-4-yl)ethan-1-ol]	> 10000 nM	–	7.2 nM	–	3.3 nM	–	6.7 nM	–	33 nM	–
Cn1ncc(C#Cc2cnc(Nc3ccnc(-c4cnn(S(=O)(=O)C5CC5)c4)n3)cc2N2CCC(O)CC2)c1C1CC1 [Example 86, 1-(5-((5-Cyclopropyl-1-methyl-1H-pyrazol-4-yl)ethynyl)-2-((2-(1-(cyclopropylsulfonyl)-1H-pyrazol-4-yl)pyrimidin-4-yl)amino)pyridin-4-yl)piperidin-4-ol]	> 10000 nM	–	23.9 nM	–	1.4 nM	–	6.4 nM	–	73.9 nM	–
Cn1ncc(C#Cc2cnc(Nc3ccnc(-c4cnn(S(=O)(=O)C5CC5)c4)n3)cc2N2CCC(CCO)CC2)c1C1CC1 [Example 87, 2-(1-(5-((5-Cyclopropyl-1-methyl-1H-pyrazol-4-yl)ethynyl)-2-((2-(1-(cyclopropylsulfonyl)-1H-pyrazol-4-yl)pyrimidin-4-yl)amino)pyridin-4-yl)piperidin-4-yl)ethan-1-ol]	> 10000 nM	–	26.3 nM	–	2.3 nM	–	6.2 nM	–	40.5 nM	–

Further lines, results first:

IC50 (EGFR wildtype (WT); IC50 WT (nM), 100 μM ATP)	IC50 (EGFR wildtype (WT); [1])	IC50 (EGFR Del19/C797S; [2])	IC50 (EGFR Del19/C797S; [3])	IC50 (EGFR Del19/T790M/C797S; [4])	IC50 (EGFR Del19/T790M/C797S; [5])	IC50 (EGFR L858R/T790M/C797S; [6])	IC50 (EGFR L858R/T790M/C797S; [7])	IC50 (EGFR L858R/C797S; [8])	IC50 (EGFR L858R/C797S; [9])	SMILES
> 10000 nM	667 nM	80.7 nM	51.9 nM	4 nM	3.7 nM	8.8 nM	2.2 nM	2780 nM	22.1 nM	Cn1cc(C#Cc2cnc(Nc3ccnc(-c4cnn(S(=O)(=O)C5CC5)c4)n3)cc2N[C@@H]2CCC[C@@H](O)C2)cn1 [Example 76, (1R,3R)-3-((2-((2-(1-(Cyclopropylsulfonyl)-1H-pyrazol-4-yl)pyrimidin-4-yl)amino)-5-((1-methyl-1H-pyrazol-4-yl)ethynyl)pyridin-4-yl)amino)cyclohexan-1-ol]
> 10000 nM	80.1 nM	16.1 nM	12.3 nM	0.6 nM	0.5 nM	1.9 nM	0.5 nM	137 nM	16.4 nM	Cn1cc(C#Cc2cnc(Nc3ccnc(-c4cnn(S(=O)(=O)C5CC5)c4)n3)cc2N[C@H]2CC[C@@H](NCCF)CC2)cn1 [Example 80, N^2-(2-(1-(Cyclopropylsulfonyl)-1H-pyrazol-4-yl)pyrimidin-4-yl)-N^4-((1s, 4s)-4-((2-fluoroethyl)amino)cyclohexyl)-5-((1-methyl-1H-pyrazol-4-yl)ethynyl)pyridine-2,4-diamine]
> 10000 nM	–	3.5 nM	–	0.6 nM	–	1.8 nM	–	22.8 nM	–	O=S(=O)(C1CC1)n1cc(-c2nccc(Nc3cc(N4CCC(O)CC4)c(C#Cc4cnn(C5CC5(F)F)c4)cn3)n2)cn1 (stereo not shown) [Example 82, 1-(2-((2-(1-(Cyclopropylsulfonyl)-1H-pyrazol-4-yl)pyrimidin-4-yl)amino)-5-((1-(2,2-difluorocyclopropyl)-1H-pyrazol-4-yl)ethynyl)pyridin-4-yl)piperidin-4-ol]
> 10000 nM	–	4 nM	–	1.3 nM	–	2.5 nM	–	24.4 nM	–	O=S(=O)(C1CC1)n1cc(-c2nccc(Nc3cc(N4CCC(CO)CC4)c(C#Cc4cnn(C5CC5(F)F)c4)cn3)n2)cn1 (stereo not shown) [Example 83, (1-(2-((2-(1-(Cyclopropylsulfonyl)-1H-pyrazol-4-yl)pyrimidin-4-yl)amino)-5-((1-(2,2-difluorocyclopropyl)-1H-pyrazol-4-yl)ethynyl)pyridin-4-yl)piperidin-4-yl)methanol]
> 10000 nM	114 nM	7 nM	3.5 nM	1.8 nM	1.8 nM	3.5 nM	1 nM	50.8 nM	3.1 nM	O=S(=O)(C1CC1)n1cc(-c2nccc(Nc3cc(NC4CCC(O)CC4)c(C#Cc4cnn(C5CC5(F)F)c4)cn3)n2)cn1 (stereo not shown) [Example 85, (1s,4s)-4-((2-((2-(1-(Cyclopropylsulfonyl)-1H-pyrazol-4-yl)pyrimidin-4-yl)amino)-5-((1-(2,2-difluorocyclopropyl)-1H-pyrazol-4-yl)ethynyl)pyridin-4-yl)amino)cyclohexan-1-ol]
> 10000 nM	–	15.6 nM	–	1.6 nM	–	3.9 nM	–	65 nM	–	Cn1ncc(C#Cc2cnc(Nc3ccnc(-c4cnn(S(=O)(=O)C5CC5)c4)n3)cc2N[C@H]2CC[C@@H](O)CC2)c1C1CC1 [Example 88, (1s,4s)-4-((5-((5-Cyclopropyl-1-methyl-1H-pyrazol-4-yl)ethynyl)-2-((2-(1-(cyclopropylsulfonyl)-1H-pyrazol-4-yl)pyrimidin-4-yl)amino)pyridin-4-yl)amino)cyclohexan-1-ol]
